Measurements taken from the supplement of paper PMC11061612.

What was measured:
Experiment in all cases: Bliss excess, mean over the matrix (fraction); higher = more synergy
EB2 (Burkitt's Lymphoma) = test system: EB2 (Burkitt's Lymphoma)
How it was run: (§1)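 Bliss excess equals the observed combination effect minus the expected value EA + EB − EA·EB, where EA and EB are the effects of each agent alone. Combination Emax is the second-highest inhibition within the matrix. Inhibition was scaled from CellTiter-Glo 2.0 luminescence, with 0 set by vehicle wells and 1 by blank wells, after 72 hours of two-drug dosing of cells plated in 1536-well plates.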

[1] = test system: NCI-H441 (Lung Adenocarcinoma)
How it was run: as §1

[2] = test system: KYSE-220 (Esophageal Squamous Cell Carcinoma)
How it was run: as §1

[3] = test system: LU-165 (Small Cell Lung Carcinoma)
How it was run: as §1

[4] = test system: JHH-2 (Hepatocellular Carcinoma)
How it was run: as §1

[5] = test system: SW620 (Colorectal Carcinoma)
How it was run: as §1

769-P (Kidney Carcinoma) = test system: 769-P (Kidney Carcinoma)
How it was run: as §1

[6] = test system: HCC1395 (Breast Carcinoma)
How it was run: as §1

[7] = test system: NCI-H1651 (Lung Adenocarcinoma)
How it was run: as §1

IM-9 (Non-Cancerous) = test system: IM-9 (Non-Cancerous)
How it was run: as §1

[8] = test system: NCI-H1703 (Squamous Cell Lung Carcinoma)
How it was run: as §1

WM1552C (Melanoma) = test system: WM1552C (Melanoma)
How it was run: as §1

HCC70 (Breast Carcinoma) = test system: HCC70 (Breast Carcinoma)
How it was run: as §1

[9] = test system: JHU-022 (Oral Cavity Carcinoma)
How it was run: as §1

[10] = test system: NCI-H2087 (Lung Adenocarcinoma)
How it was run: as §1

[11] = test system: UACC-812 (Breast Carcinoma)
How it was run: as §1

[12] = test system: MHH-ES-1 (Ewing's Sarcoma)
How it was run: as §1

[13] = test system: 22RV1 (Prostate Carcinoma)
How it was run: as §1

[14] = test system: CGTH-W-1 (Thyroid Gland Carcinoma)
How it was run: as §1

EW-7 (Ewing's Sarcoma) = test system: EW-7 (Ewing's Sarcoma)
How it was run: as §1

Row | Compound | Bliss excess (EB2 (Burkitt's Lymphoma)) | Bliss excess [1] | Bliss excess [2] | Bliss excess [3] | Bliss excess [4] | Bliss excess [5] | Bliss excess (769-P (Kidney Carcinoma)) | Bliss excess [6] | Bliss excess [7] | Bliss excess (IM-9 (Non-Cancerous)) | Bliss excess [8] | Bliss excess (WM1552C (Melanoma)) | Bliss excess (HCC70 (Breast Carcinoma)) | Bliss excess [9] | Bliss excess [10] | Bliss excess [11] | Bliss excess [12] | Bliss excess [13] | Bliss excess [14] | Bliss excess (EW-7 (Ewing's Sarcoma))
1 | C[C@@H](c1ccc2nccn2c1)n1nnc2ncc(-c3cnn(C)c3)nc21 [Savolitinib] + Cc1c2c(nn1C)CSCc1cc(n(C)n1)CSc1cc(c3ccccc3c1)OCCCc1c(C(=O)O)n(C)c3c-2c(Cl)ccc13 [AZD5991] (first compound max 1 µM, 7x7, partner max 1 µM) | -0.0501 | -0.0416 | -0.025 | -0.0046 | -0.0228 | -0.0537 | -0.0252 | -0.0699 | -0.0358 | 0.0478 | -0.0063 | -0.079 | -0.0312 | -0.0742 | 0.0097 | 0.0174 | -0.0486 | -0.0204 | -0.0315 | -0.0336
2 | COc1cc2ncnc(Nc3ccc(F)c(Cl)c3)c2cc1OCCCN1CCOCC1 [Gefitinib] + CC(C)n1c(=O)n(C)c2cnc3cc(F)c(-c4ccc(OCCCN5CCCCC5)nc4)cc3c21 [AZD1390] (first compound max 10 µM, 7x7, partner max 0.3 µM) | -0.0774 | -0.047 | -0.0059 | -0.0477 | -0.0446 | -0.0762 | -0.0722 | -0.0265 | -0.0554 | -0.0511 | 0.0012 | -0.0589 | -0.0536 | -0.053 | -0.135 | -0.0549 | -0.0611 | -0.079 | -0.0417 | -0.0416
3 | Cc1cc2ncnn2cc1Nc1ncc2c(n1)n(C1CCOCC1)c(=O)n2C [AZD7648] + C[C@@H]1COCCN1C2=NC(=NC(=C2)C3(CC3)[S@](=N)(=O)C)C4=C5C=CNC5=NC=C4 [AZD6738] (first compound max 10 µM, 7x7, partner max 10 µM) | -0.0604 | 0.0095 | -0.0122 | 0.0351 | -0.073 | 0.0264 | 0.0264 | 0.0361 | 0.0217 | -0.0417 | 0.0089 | 0.0143 | -0.0058 | 0.0105 | 0.0177 | 0.0254 | 0.0275 | -0.0179 | 0.0191 | -0.0058
4 | CN(CCO)CC[C@H](CSc1ccccc1)Nc1ccc(S(=O)(=O)NC(=O)c2ccc(N3CCC([C@@H](O)c4ccccc4-c4ccc(Cl)cc4)CC3)cc2)cc1S(=O)(=O)C(F)(F)F [AZD4320] + C1CN(CCC1(C(=O)N[C@@H](CCO)C2=CC=C(C=C2)Cl)N)C3=NC=NC4=C3C=CN4 [Capivasertib] (first compound max 1 µM, 7x7, partner max 3 µM) | 0.0549 | -0.0503 | -0.0056 | -0.042 | -0.0031 | -0.0498 | -0.0478 | -0.0479 | -0.0005 | -0.0399 | 0.0251 | -0.0419 | 0.0327 | -0.0491 | -0.0696 | -0.0135 | -0.0261 | -0.0486 | -0.0436 | 0.0586
5 | COc1cc2c(cc1OCCCCCOc1cc3c(cc1OC)C(=O)N1C=C(C)C[C@H]1C=N3)N=C[C@@H]1CC(C)=CN1C2=O [SG3199] + O=C(c1cc(Cc2n[nH]c(=O)c3ccccc23)ccc1F)N1CCN(C(=O)C2CC2)CC1 [Olaparib] (first compound max 0.001 µM, 7x7, partner max 10 µM) | -0.0259 | -0.0871 | -0.0151 | -0.0532 | -0.0244 | -0.0303 | -0.0643 | -0.0449 | -0.0788 | -0.0059 | -0.0451 | -0.0462 | -0.0252 | -0.0479 | -0.0224 | -0.0377 | -0.0454 | -0.0421 | -0.0332 | -0.0341
6 | N#Cc1cnc(Nc2cc(NC[C@H]3CNCCO3)c(C(F)(F)F)cn2)cn1 [SRA737] + O=c1[nH]cc(F)c(=O)[nH]1 [5-Fluorouracil] (first compound max 10 µM, 7x7, partner max 20 µM) | -0.0038 | -0.0258 | -0.0134 | -0.082 | 0.0695 | -0.0353 | -0.112 | -0.0584 | -0.0323 | 0.0007 | -0.0304 | 0.0347 | 0.0824 | -0.0078 | -0.0122 | 0.023 | 0.0337 | 0.0268 | 0.0467 | -0.0504
7 | Cc1cc2ncnn2cc1Nc1ncc2c(n1)n(C1CCOCC1)c(=O)n2C [AZD7648] + C=CCn1c(=O)c2cnc(Nc3ccc(N4CCN(C)CC4)cc3)nc2n1-c1cccc(C(C)(C)O)n1 [AZD1775] (first compound max 10 µM, partner max 1 µM) | -0.0857 | 0.0059 | -0.0222 | 0.0491 | -0.0469 | -0.0206 | -0.0082 | -0.0571 | -0.0812 | -0.0659 | -0.0283 | -0.0111 | 0.0731 | -0.0239 | -0.0176 | -0.0446 | -0.0116 | -0.0214 | 0.0025 | 0.0024
8 | Cc1cc2ncnn2cc1Nc1ncc2c(n1)n(C1CCOCC1)c(=O)n2C [AZD7648] + COc1cc([C@@H]2c3cc4c(cc3[C@@H](O[C@@H]3O[C@@H]5CO[C@@H](C)O[C@H]5[C@H](O)[C@H]3O)[C@H]3COC(=O)[C@H]23)OCO4)cc(OC)c1O [Etoposide] (first compound max 10 µM, 7x7, partner max 10 µM) | 0.0495 | 0.0013 | 0.066 | -0.0132 | -0.0132 | 0.0975 | 0.0859 | -0.013 | 0.073 | 0.12 | 0.0532 | 0.0922 | 0.0677 | 0.0522 | 0.0674 | -0.0106 | 0.105 | 0.0583 | 0.0595 | 0.0263
9 | CN(CCO)CC[C@H](CSc1ccccc1)Nc1ccc(S(=O)(=O)NC(=O)c2ccc(N3CCC([C@@H](O)c4ccccc4-c4ccc(Cl)cc4)CC3)cc2)cc1S(=O)(=O)C(F)(F)F [AZD4320] + Cn1cnc2c(F)c(Nc3ccc(Br)cc3Cl)c(C(=O)NOCCO)cc21 [Selumetinib] (first compound max 1 µM, 7x7, partner max 3 µM) | -0.0592 | 0.0193 | 0.043 | -0.0155 | -0.0267 | 0.032 | 0.0392 | 0.012 | 0.0238 | 0.051 | 0.0103 | 0.0035 | 0.152 | 0.0374 | 0.0142 | 0.0065 | -0.0124 | 0.136 | 0.0043 | 0.0295
10 | N#Cc1cnc(Nc2cc(NC[C@H]3CNCCO3)c(C(F)(F)F)cn2)cn1 [SRA737] + CCc1c2c(nc3ccc(O)cc13)-c1cc3c(c(=O)n1C2)COC(=O)[C@]3(O)CC [SN-38] (first compound max 10 µM, 7x7, partner max 0.3 µM) | -0.0723 | -0.0258 | 0.0163 | -0.0704 | 0.0131 | 0.0405 | -0.0284 | -0.0012 | -0.0101 | 0.0219 | -0.0606 | -0.0777 | -0.0249 | -0.0966 | 0.0137 | -0.0309 | -0.0259 | -0.0792 | -0.0377 | -0.0597
11 | CN(CCO)CC[C@H](CSc1ccccc1)Nc1ccc(S(=O)(=O)NC(=O)c2ccc(N3CCC([C@@H](O)c4ccccc4-c4ccc(Cl)cc4)CC3)cc2)cc1S(=O)(=O)C(F)(F)F [AZD4320] + C[C@@H]1COCCN1C2=NC(=NC(=C2)C3(CC3)[S@](=N)(=O)C)C4=C5C=CNC5=NC=C4 [AZD6738] (first compound max 1 µM, 7x7, partner max 10 µM) | 0.0248 | -0.048 | -0.0076 | -0.0344 | -0.0186 | -0.0151 | -0.0167 | 0.0007 | 0.0261 | 0.0007 | 0.0053 | -0.0969 | -0.0318 | -0.0035 | 0.0149 | -0.0348 | 0.0133 | -0.133 | -0.0342 | 0.0835
12 | CN(CCO)CC[C@H](CSc1ccccc1)Nc1ccc(S(=O)(=O)NC(=O)c2ccc(N3CCC([C@@H](O)c4ccccc4-c4ccc(Cl)cc4)CC3)cc2)cc1S(=O)(=O)C(F)(F)F [AZD4320] + C=CCn1c(=O)c2cnc(Nc3ccc(N4CCN(C)CC4)cc3)nc2n1-c1cccc(C(C)(C)O)n1 [AZD1775] (first compound max 1 µM, partner max 1 µM) | 0.0346 | 0.0365 | -0.047 | 0.0775 | -0.0067 | 0.021 | -0.0025 | -0.0345 | 0.0154 | 0.0638 | 0.0572 | 0.0085 | 0.006 | 0.032 | 0.0088 | -0.0281 | 0.0439 | -0.0487 | -0.035 | 0.14
13 | N#Cc1cnc(Nc2cc(NC[C@H]3CNCCO3)c(C(F)(F)F)cn2)cn1 [SRA737] + C=CCn1c(=O)c2cnc(Nc3ccc(N4CCN(C)CC4)cc3)nc2n1-c1cccc(C(C)(C)O)n1 [AZD1775] (first compound max 10 µM, partner max 1 µM) | 0.0335 | -0.0403 | 0.0983 | 0.0319 | -0.008 | -0.0272 | 0.0166 | 0.0559 | 0.0846 | 0.156 | 0.0391 | -0.0052 | 0.0276 | -0.0533 | 0.0238 | 0.0343 | 0.0231 | 0.0367 | -0.0074 | 0.0142
